Measurements: US20140371262A1, “PREVENTIVE AND/OR THERAPEUTIC AGENT FOR THROMBOEMBOLISM IN THROMBOEMBOLISM PATIENT WITH SEVERE RENAL IMPAIRMENT” (Daiichi Sankyo Company, Limited, priority 2011, published 2014)

What was measured:
[1] = tested on: patients with moderate to-high-risk atrial fibrillation; assay: ENGAGE-AF TIMI-48 phase 3 study of edoxaban versus warfarin in atrial fibrillation
NVAF patients = assay: Late phase-II trial targeting NVAF patient in Japan (thromboembolic and bleeding events, 12 weeks); type: in vivo, human; conditions: warfarin group (PT-INR adjusted to 2.0 to 3.0; 1.6 to 2.6 for 70 years or older), 12 weeks
[2] = subgroup whose CLCR had become <30 mL/min during the trial, edoxaban 15 mg (N = 349), warfarin dose adjusted (N = 367)
[3] = warfarin, dose-adjusted to INR 2.0 to 3.0

CC(=O)CC(c1ccccc1)c1c(O)c2ccccc2oc1=O (stereo not shown) [warfarin, reference compound]
ACM (all cause mortality): # of events [1, 2]: 13 | Disabling Stroke: # of events [1, 2]: 3 | Disabling Stroke: Event Rate [1, 2]: 0.48 %/yr | Fatal Bleed: # of events [1, 2]: 2 | Fatal Bleed: Event Rate [1, 2]: 0.32 %/yr | Fatal SEE: # of events [1, 2]: 0 | Fatal SEE: Event Rate [1, 2]: 0.00 %/yr | Fatal Stroke: # of events [1, 2]: 3 | Fatal Stroke: Event Rate [1, 2]: 0.48 %/yr | First Disabling or Fatal Stroke, Fatal SEE, LT or Fatal Bleed, or ACM: # of events [1, 2]: 21 | First Disabling or Fatal Stroke, Fatal SEE, LT or Fatal Bleed, or ACM: Event Rate [1, 2]: 3.36 %/yr | First Stroke, SEE or TIA: # of events [1, 2]: 14 | First Stroke, SEE or TIA: Event Rate [1, 2]: 2.26 %/yr | First Stroke, SEE, Major Bleed, or ACM: # of events [1, 2]: 49 | First Stroke, SEE, Major Bleed, or ACM: Event Rate [1, 2]: 8.04 %/yr | LT Bleed (life threatening): # of events [1, 2]: 5 | LT Bleed (life threatening): Event Rate [1, 2]: 0.80 %/yr | Annualized rate of death from cardiovascular causes [1, 3]: 3.17% | Annualized rate of major bleeding [1, 3]: 3.43% | Annualized rate of the primary end point (stroke or systemic embolism) during treatment [1, 3]: 1.50% | Rate of the key secondary end point (composite of stroke, systemic embolism, or death from cardiovascular causes) [1, 3]: 4.43% | Incidence of bleeding events (major, clinically relevant non-major and minor bleeding in total) (NVAF patients): 20.0%
